The results in this text go back to US20090227607A1, “DEAZAPURINES USEFUL AS INHIBITORS OF JANUS KINASES” (priority 2006, published 2009).

In test [1] the target is JAK-2 enzyme (Homo sapiens, UniProt O60674). Briefly: JAK2 Inhibition Assay. The test is classed as biochemical. The conditions noted are these: 15 μM poly(Glu)4Tyr, 12 μM ATP, 25° C. A digest of the protocol: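 JAK2 kinase in HEPES pH 7.4 buffer with MgCl2, DTT, NaCl and BSA; final 15 μM poly(Glu)4Tyr and 12 μM [33P]ATP. Enzyme added to start, 20 min at 25 °C, TCA stop, filter capture and scintillation count of 33P incorporation; Ki values.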

In test [2] the target is T1, JAK3 (Homo sapiens, UniProt P52333).
T1 sequence (P52333 1-1124): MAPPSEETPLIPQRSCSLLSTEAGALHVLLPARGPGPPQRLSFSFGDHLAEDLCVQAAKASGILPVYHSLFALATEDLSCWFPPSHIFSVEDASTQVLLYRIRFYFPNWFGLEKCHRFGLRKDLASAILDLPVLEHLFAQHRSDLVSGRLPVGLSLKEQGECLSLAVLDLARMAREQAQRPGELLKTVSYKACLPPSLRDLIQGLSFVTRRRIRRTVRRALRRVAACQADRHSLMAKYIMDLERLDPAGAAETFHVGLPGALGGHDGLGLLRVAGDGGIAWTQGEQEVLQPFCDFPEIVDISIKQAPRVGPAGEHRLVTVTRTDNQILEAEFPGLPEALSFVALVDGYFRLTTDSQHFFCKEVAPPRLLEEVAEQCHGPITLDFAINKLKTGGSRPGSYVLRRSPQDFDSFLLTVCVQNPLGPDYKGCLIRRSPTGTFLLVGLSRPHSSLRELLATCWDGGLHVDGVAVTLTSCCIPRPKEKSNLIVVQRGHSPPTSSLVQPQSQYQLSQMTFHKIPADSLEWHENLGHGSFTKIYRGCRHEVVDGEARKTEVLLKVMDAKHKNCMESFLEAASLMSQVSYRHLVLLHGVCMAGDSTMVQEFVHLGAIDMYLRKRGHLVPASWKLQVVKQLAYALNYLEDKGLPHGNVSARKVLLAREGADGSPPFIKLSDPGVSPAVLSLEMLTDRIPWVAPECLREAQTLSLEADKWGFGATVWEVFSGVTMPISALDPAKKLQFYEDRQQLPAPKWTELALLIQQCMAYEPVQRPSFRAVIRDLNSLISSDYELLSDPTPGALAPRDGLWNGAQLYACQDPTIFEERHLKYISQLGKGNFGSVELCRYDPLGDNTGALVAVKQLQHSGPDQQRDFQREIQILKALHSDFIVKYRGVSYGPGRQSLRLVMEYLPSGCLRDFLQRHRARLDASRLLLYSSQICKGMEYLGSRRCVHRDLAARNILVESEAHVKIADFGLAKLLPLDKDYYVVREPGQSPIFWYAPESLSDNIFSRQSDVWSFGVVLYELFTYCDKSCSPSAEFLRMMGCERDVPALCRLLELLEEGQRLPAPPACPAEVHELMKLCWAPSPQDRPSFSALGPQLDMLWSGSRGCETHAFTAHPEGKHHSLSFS
Briefly: JAK3 Inhibition Assay. The class given is biochemical. The note with it: 1 μM poly(Glu)4Tyr, 5 μM ATP, 1 nM JAK3, 25° C.; read-out: JAK3 enzyme inhibition data (Ki). A digest of the protocol: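 Radiometric JAK3 (1 nM) reaction with 5 μM [33P]ATP and 1 μM poly(Glu)4Tyr in HEPES pH 7.4 buffer, run for 20 min at 25 °C. Reactions were stopped with TCA and filter-captured, and 33P incorporation was counted; values reported as Ki.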

Chain of JAK-2 enzyme (O60674 whole entry, species assumed): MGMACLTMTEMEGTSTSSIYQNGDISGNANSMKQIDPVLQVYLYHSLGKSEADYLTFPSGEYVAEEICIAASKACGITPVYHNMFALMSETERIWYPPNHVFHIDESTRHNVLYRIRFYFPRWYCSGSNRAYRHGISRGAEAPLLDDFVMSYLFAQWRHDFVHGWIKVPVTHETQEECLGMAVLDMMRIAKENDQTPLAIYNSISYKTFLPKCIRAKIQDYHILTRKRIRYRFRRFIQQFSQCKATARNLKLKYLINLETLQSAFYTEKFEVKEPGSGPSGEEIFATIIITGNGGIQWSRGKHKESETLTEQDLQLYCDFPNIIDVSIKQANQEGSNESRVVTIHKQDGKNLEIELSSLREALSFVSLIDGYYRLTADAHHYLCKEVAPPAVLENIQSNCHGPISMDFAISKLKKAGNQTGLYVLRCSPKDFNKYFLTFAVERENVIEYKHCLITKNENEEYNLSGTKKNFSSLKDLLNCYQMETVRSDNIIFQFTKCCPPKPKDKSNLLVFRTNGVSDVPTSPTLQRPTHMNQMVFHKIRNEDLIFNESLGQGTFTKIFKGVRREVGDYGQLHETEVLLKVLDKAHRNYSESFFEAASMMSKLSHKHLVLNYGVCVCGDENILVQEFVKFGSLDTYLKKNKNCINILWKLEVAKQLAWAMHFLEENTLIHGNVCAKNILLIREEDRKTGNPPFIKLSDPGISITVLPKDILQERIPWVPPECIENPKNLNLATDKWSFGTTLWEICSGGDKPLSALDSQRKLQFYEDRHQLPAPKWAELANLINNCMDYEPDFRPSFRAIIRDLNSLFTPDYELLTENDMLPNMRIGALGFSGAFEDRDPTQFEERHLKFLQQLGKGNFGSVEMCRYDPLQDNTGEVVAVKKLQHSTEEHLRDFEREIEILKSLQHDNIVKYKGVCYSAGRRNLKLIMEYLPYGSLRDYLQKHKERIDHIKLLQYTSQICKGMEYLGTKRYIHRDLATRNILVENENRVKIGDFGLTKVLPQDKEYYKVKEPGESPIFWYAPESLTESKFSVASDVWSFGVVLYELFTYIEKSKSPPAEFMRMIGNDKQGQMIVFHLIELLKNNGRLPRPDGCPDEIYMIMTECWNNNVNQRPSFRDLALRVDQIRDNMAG

As for `CCN(Cc1ccccc1)C(=O)c1cc(-c2ncnc3[nH]cc(C)c23)c[nH]1` [Compound 202], the inhibition constant (Ki) was less than 100 nM in test [1] and 100 to 500 nM in test [2].

With `Cc1c[nH]c2ncnc(-c3c[nH]c(C(=O)N(C)CCc4ccccc4)c3)c12` [Compound 203], the figures for the Ki in test [1] and in test [2] were less than 100 nM and 100 to 500 nM, respectively.

As for `Cc1c[nH]c2ncnc(-c3c[nH]c(C(=O)N4C(C)C=CC4C)c3)c12` (centres unmarked) [Compound 204], the inhibition constant Ki in test [1] was less than 100 nM; in test [2], 100 to 500 nM.

Take `CCCCCN(C)C(=O)c1cc(-c2ncnc3[nH]cc(C)c23)c[nH]1` [Compound 205]: the Ki was less than 100 nM in test [1] and 100 to 500 nM in test [2].

Regarding `CCCN(CC)C(=O)c1cc(-c2ncnc3[nH]cc(C)c23)c[nH]1` [Compound 206], the Ki in test [1] was less than 100 nM; in test [2], 100 to 500 nM.

As for `CCN(CCC#N)C(=O)c1cc(-c2ncnc3[nH]cc(C)c23)c[nH]1` [Compound 207], the Ki in test [1] was less than 100 nM; in test [2], 100 to 500 nM.

`Cc1c[nH]c2ncnc(-c3c[nH]c(C(=O)N(CCC(F)(F)F)CC4CC4)c3)c12` [Compound 208]: the Ki in test [1] and in test [2] was less than 100 nM each time.

In the case of `CCCCN(CCC)C(=O)c1cc(-c2ncnc3[nH]cc(C)c23)c[nH]1` [Compound 209], the Ki in test [1] was less than 100 nM; in test [2], 100 to 500 nM.

`CC(C)N(CCC(F)(F)F)C(=O)c1ccc(-c2ncnc3[nH]ccc23)o1` [Compound 210]: the Ki in test [1] and in test [2] was less than 100 nM in each case.

With `CC(C)CN(CCC(F)(F)F)C(=O)c1ccc(-c2ncnc3[nH]ccc23)o1` [Compound 211], the Ki in test [1] and in test [2] was less than 100 nM in each case.

On to `O=C(c1ccc(-c2ncnc3[nH]ccc23)o1)N(CCC(F)(F)F)CC1CCCC1` [Compound 212], for which the Ki in test [1] and in test [2] was less than 100 nM throughout.

With `C[C@@H]1CC[C@@H](C)N1C(=O)c1cc(-c2ncnc3[nH]cc(Cl)c23)c[nH]1` [Compound 213], the Ki in test [1] and in test [2] was less than 100 nM each time.

`O=C(NCc1ccccc1)c1cc(-c2ncnc3[nH]ccc23)c[nH]1` [Compound 214]: the Ki in test [1] and in test [2] was less than 100 nM in each case.

Take `O=C(c1ccc(-c2ncnc3[nH]ccc23)o1)N(CCC(F)(F)F)CC1CCC1` [Compound 215]: the Ki in test [1] and in test [2] was less than 100 nM each time.

Take `O=C(c1ccc(-c2ncnc3[nH]ccc23)o1)N(CC1CCC1)CC(F)(F)F` [Compound 216]: the Ki in test [1] and in test [2] was less than 100 nM throughout.

In the case of `C=CCN(CC=C)C(=O)c1ccc(-c2ncnc3[nH]ccc23)o1` [Compound 217], the Ki in test [1] and in test [2] was less than 100 nM in each case.

Regarding `CC1CCCN1C(=O)c1ccc(-c2ncnc3[nH]ccc23)o1` (centres unmarked) [Compound 218], the Ki in test [1] was less than 100 nM; in test [2], 100 to 500 nM.

Regarding `O=C(c1ccc(-c2ncnc3[nH]ccc23)o1)N1CCCC1` [Compound 219], the Ki was 100 to 500 nM in test [1] and 500 to 5000 nM in test [2].

Turning to `C=CCN(C(=O)c1ccc(-c2ncnc3[nH]ccc23)o1)[C@H](C)c1ccccc1` [Compound 220], the inhibitory constant (Ki) in test [1] is less than 100 nM; in test [2] it was 100 to 500 nM.

With `NC(=O)C1CCCN1C(=O)c1ccc(-c2ncnc3[nH]ccc23)o1` (centres unmarked) [Compound 221], the Ki in test [1] and in test [2] was 500 to 5000 nM throughout.

On to `C=CCN(C(=O)c1ccc(-c2ncnc3[nH]ccc23)o1)[C@@H](C)c1ccccc1` [Compound 222], for which the Ki in test [1] and in test [2] was less than 100 nM each time.

On to `Cn1cc(-c2ncnc3[nH]ccc23)cc1C(=O)N(CCC(F)(F)F)CC1CCC1` [Compound 223], for which the Ki in test [1] and in test [2] was less than 100 nM throughout.

Regarding `C[C@@H]1CC[C@@H](C)N1C(=O)c1cc(-c2ncnc3[nH]ccc23)cn1C` [Compound 224], the Ki in test [1] is less than 100 nM; in test [2] it was 100 to 500 nM.

As to `Cn1cc(-c2ncnc3[nH]ccc23)cc1C(=O)N(CCC(F)(F)F)CC1CC1` [Compound 225], the Ki in test [1] and in test [2] was less than 100 nM each time.

For the molecule `Cn1cc(-c2ncnc3[nH]ccc23)cc1C(=O)N(CCC#N)CC1CC1` [Compound 226], the Ki in test [1] and in test [2] was less than 100 nM each time.

In the case of `O=C(c1cc(-c2ncnc3[nH]cc(Cl)c23)c[nH]1)N(CCC(F)(F)F)CC1CC1` [Compound 227], the Ki in test [1] and in test [2] was less than 100 nM each time.

Consider `Cn1cc(-c2ncnc3[nH]ccc23)cc1C(=O)N(CC1CC1)CC(F)(F)F` [Compound 228], for which the Ki in test [1] and in test [2] was less than 100 nM each time.

With `O=C(c1cc(-c2ncnc3[nH]ccc23)co1)N(CCC(F)(F)F)CC1CC1` [Compound 229, N-(cyclopropylmethyl)-4-(7H-pyrrolo[2,3-d]pyrimidin-4-yl)-N-(3,3,3-trifluoropropyl)furan-2-carboxamide], the Ki in test [1] is less than 100 nM; in test [2] it was 100 to 500 nM.

In the case of `N#CCCN(CCC(F)(F)F)C(=O)c1cc(-c2ncnc3[nH]ccc23)co1` [Compound 230, N-(2-cyanoethyl)-4-(7H-pyrrolo[2,3-d]pyrimidin-4-yl)-N-(3,3,3-trifluoropropyl)furan-2-carboxamide], the Ki in test [1] was less than 100 nM; in test [2], 100 to 500 nM.

Take `O=C(c1cc(-c2ncnc3[nH]ccc23)co1)N(CC1CC1)CC(F)(F)F` [Compound 231, N-(cyclopropylmethyl)-4-(7H-pyrrolo[2,3-d]pyrimidin-4-yl)-N-(2,2,2-trifluoroethyl)furan-2-carboxamide]: the Ki in test [1] and in test [2] was less than 100 nM each time.

Take `CCCCN(CC)C(=O)c1cc(-c2ncnc3[nH]ccc23)cn1C` [Compound 232]: the values for the Ki in test [1] and in test [2] were less than 100 nM and 100 to 500 nM, respectively.

As to `COCCN(C)C(=O)c1cc(-c2ncnc3[nH]ccc23)cn1C` [Compound 233], the Ki is less than 100 nM in test [1] and 500 to 5000 nM in test [2].

As for `CCCN(C)C(=O)c1cc(-c2ncnc3[nH]ccc23)cn1C` [Compound 234], the Ki in test [1] was less than 100 nM; in test [2] it was 500 to 5000 nM.

Take `Cn1cc(-c2ncnc3[nH]ccc23)cc1C(=O)NCC(F)(F)F` [Compound 235]: the Ki in test [1] and in test [2] was less than 100 nM throughout.

With `CCN(CCC#N)C(=O)c1cc(-c2ncnc3[nH]ccc23)cn1C` [Compound 237], the Ki in test [1] and in test [2] was less than 100 nM throughout.

With `Cn1cc(-c2ncnc3[nH]ccc23)cc1C(=O)N(CC1CCC1)CC(F)(F)F` [Compound 238], the inhibitory constant (Ki) was less than 100 nM in test [1] and 100 to 500 nM in test [2].

Regarding `O=C(c1cc(-c2ncnc3[nH]cc(Cl)c23)c[nH]1)N(CC1CCC1)CC(F)(F)F` [Compound 240], the Ki in test [1] and in test [2] was less than 100 nM throughout.

Turning to `O=C(c1cc(-c2ncnc3[nH]cc(Cl)c23)c[nH]1)N(CCC(F)(F)F)CC1CCC1` [Compound 241], the figures for the Ki in test [1] and in test [2] were less than 100 nM and 100 to 500 nM, respectively.

For `N#CCCN(CCC(F)(F)F)C(=O)c1cc(-c2ncnc3[nH]cc(Cl)c23)c[nH]1` [Compound 242], the Ki in test [1] and in test [2] was less than 100 nM throughout.

Turning to `CC(C)CN(CCC#N)C(=O)c1cc(-c2ncnc3[nH]cc(Cl)c23)c[nH]1` [Compound 243], the Ki in test [1] and in test [2] was less than 100 nM throughout.

As for `CC(C)CN(CCC(F)(F)F)C(=O)c1cc(-c2ncnc3[nH]cc(Cl)c23)c[nH]1` [Compound 244], the Ki in test [1] was less than 100 nM; in test [2], 100 to 500 nM.

For `C=CCN(CC=C)C(=O)c1cc(-c2ncnc3[nH]ccc23)co1` [Compound 245], the Ki in test [1] was less than 100 nM; in test [2] it was 100 to 500 nM.

Regarding `CC[C@@H]1CC[C@@H](CC)N1C(=O)c1cc(-c2ncnc3[nH]ccc23)co1` [Compound 246], the Ki in test [1] is less than 100 nM; in test [2] it was 100 to 500 nM.
